Reference: patent US10308639B2, “Phosphatidylinositol 3-kinase inhibitors” (Gilead Sciences, Inc., priority 2014, dated 2019)
Where two headings read alike, the source gives them in different places.

What was measured:
Type in all cases: biochemical
PI3Kγ = molecular target: T1, PI3Kγ (Homo sapiens, UniProt P48736); assay: TR-FRET enzymatic activity assay, PI3Kγ; settings: read-out: PI3Kγ IC50
T1 construct: made in house
Method in brief: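 Activity measured by time-resolved FRET; each isoform tested in its own enzymatic reaction.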

PI3Kδ = molecular target: T2, PI3Kδ (Homo sapiens, UniProt O00329); assay: TR-FRET enzymatic activity assay, PI3Kδ
T2 construct: made in house
T2 sequence (O00329 whole entry): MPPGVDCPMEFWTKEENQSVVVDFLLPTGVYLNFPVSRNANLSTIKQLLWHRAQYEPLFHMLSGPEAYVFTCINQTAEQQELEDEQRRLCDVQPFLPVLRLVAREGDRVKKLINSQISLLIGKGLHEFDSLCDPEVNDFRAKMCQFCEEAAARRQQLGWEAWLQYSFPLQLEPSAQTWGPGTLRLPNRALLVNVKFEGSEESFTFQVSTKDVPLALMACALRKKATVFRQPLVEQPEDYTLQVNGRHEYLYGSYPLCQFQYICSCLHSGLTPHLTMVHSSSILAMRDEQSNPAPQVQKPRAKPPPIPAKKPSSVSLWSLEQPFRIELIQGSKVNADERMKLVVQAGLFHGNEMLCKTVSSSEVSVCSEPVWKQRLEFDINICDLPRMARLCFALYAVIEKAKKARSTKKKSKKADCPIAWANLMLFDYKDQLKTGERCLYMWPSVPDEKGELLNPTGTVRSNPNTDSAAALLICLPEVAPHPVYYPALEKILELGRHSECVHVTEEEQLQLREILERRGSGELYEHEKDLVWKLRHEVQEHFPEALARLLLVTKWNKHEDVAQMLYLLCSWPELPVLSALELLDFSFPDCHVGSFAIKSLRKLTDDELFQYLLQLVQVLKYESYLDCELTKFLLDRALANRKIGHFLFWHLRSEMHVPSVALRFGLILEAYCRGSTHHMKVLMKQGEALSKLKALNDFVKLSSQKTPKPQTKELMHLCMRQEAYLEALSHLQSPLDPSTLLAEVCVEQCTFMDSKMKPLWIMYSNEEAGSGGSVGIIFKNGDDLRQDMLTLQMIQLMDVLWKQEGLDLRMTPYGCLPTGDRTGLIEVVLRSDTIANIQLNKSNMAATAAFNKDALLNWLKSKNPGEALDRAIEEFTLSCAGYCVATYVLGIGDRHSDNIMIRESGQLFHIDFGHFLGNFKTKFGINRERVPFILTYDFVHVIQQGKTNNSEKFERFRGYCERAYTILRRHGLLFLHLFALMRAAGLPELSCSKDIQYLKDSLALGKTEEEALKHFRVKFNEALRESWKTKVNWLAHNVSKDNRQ
T2 sequence (P27986 whole entry partner): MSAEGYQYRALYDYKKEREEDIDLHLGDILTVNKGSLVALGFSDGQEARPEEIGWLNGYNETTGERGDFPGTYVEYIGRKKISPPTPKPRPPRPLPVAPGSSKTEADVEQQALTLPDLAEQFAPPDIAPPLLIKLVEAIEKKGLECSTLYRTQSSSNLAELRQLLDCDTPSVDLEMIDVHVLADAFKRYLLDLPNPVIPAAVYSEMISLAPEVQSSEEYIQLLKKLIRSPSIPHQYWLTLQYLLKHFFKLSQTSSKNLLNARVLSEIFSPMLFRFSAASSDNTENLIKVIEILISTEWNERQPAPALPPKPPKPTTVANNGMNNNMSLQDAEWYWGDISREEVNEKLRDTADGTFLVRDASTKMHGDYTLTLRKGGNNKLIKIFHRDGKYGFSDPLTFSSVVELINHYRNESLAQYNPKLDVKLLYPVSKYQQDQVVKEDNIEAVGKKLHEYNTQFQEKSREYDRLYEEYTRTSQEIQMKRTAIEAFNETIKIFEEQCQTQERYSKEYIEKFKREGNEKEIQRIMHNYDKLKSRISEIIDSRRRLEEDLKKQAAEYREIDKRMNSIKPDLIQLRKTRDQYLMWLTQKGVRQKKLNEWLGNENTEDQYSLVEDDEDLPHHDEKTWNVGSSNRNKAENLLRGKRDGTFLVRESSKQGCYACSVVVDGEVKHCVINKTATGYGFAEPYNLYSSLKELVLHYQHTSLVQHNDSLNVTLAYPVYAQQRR

PI3Kβ = molecular target: T3, PI3Kβ (Homo sapiens, UniProt P42338); assay: TR-FRET enzymatic activity assay, PI3Kβ
T3 construct: made in house
T3 sequence (P42338 whole entry): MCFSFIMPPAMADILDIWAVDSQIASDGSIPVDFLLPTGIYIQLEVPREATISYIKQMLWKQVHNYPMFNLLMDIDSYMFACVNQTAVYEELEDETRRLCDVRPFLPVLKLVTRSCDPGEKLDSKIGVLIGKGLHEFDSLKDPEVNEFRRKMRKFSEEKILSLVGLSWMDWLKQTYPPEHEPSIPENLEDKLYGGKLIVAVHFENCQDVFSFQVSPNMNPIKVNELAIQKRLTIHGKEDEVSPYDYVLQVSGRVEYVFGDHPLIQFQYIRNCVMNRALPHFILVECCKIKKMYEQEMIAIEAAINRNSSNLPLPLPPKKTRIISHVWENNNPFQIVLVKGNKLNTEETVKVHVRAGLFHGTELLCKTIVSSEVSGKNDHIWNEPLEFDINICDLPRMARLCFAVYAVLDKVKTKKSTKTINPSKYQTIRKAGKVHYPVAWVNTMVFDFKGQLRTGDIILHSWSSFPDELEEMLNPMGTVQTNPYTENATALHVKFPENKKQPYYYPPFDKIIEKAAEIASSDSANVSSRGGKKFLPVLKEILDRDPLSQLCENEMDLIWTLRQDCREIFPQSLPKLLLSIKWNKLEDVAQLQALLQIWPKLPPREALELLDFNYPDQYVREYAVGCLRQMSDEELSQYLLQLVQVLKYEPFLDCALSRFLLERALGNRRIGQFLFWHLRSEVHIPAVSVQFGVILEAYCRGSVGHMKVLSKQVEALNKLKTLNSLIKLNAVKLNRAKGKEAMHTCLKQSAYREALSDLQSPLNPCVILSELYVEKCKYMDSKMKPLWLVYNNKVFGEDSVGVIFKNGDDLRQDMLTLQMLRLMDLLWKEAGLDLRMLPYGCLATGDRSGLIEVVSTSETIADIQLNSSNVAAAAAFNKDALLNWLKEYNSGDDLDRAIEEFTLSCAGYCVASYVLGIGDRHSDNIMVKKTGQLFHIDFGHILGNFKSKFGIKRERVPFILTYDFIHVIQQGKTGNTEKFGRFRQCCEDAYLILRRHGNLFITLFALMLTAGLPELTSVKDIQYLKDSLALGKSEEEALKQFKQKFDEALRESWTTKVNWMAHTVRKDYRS
T3 sequence (P27986 whole entry partner): as the sequence (P27986 whole entry partner) above

[1] = Table 2, TR-FRET, 2x Km ATP, 30 minutes at 25° C.

T1 sequence (P48736 whole entry): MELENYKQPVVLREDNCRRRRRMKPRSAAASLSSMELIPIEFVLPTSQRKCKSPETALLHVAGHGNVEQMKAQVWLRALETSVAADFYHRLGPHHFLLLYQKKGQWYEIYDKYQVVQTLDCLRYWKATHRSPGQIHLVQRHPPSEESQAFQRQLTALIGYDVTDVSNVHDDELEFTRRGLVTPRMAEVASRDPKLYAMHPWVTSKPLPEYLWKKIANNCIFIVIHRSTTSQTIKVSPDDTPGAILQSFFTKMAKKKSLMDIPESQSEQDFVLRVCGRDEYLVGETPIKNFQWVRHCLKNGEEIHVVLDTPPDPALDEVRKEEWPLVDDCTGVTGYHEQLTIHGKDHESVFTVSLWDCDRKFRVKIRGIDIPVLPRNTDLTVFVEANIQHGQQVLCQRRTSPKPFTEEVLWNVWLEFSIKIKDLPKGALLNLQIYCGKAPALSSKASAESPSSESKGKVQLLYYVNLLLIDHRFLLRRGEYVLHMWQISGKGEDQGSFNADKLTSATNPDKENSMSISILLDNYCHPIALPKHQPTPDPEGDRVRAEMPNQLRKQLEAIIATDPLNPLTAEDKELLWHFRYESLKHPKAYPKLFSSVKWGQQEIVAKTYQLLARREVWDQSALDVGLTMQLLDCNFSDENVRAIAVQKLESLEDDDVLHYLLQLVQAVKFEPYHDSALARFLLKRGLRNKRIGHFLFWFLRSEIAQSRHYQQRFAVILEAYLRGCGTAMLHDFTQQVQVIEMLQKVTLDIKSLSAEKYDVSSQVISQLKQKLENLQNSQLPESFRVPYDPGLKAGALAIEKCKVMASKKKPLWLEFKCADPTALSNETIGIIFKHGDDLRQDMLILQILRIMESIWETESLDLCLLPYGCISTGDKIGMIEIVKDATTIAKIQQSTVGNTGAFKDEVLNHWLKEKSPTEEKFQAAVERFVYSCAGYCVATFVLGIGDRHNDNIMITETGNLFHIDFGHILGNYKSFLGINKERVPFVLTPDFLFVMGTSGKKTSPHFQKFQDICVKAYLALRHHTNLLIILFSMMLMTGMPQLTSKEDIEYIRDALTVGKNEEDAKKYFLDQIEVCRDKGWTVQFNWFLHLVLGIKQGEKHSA

Row | IC50 (PI3Kγ; [1]) [nM] | IC50 (PI3Kδ; [1]) [nM] | IC50 (PI3Kβ; [1]) [nM] | IC50 (PI3Kγ) [nM] | IC50 (PI3Kγ; Table 2a, same assay) [nM] | IC50 (PI3Kδ; Table 2a, same assay) [nM] | IC50 (PI3Kβ; Table 2a, same assay) [nM] | SMILES
1 | – | 200 | 640 | > 10000 | – | – | – | CC[C@H](NC(=O)c1nccnc1N)c1nc2c(Cl)ccc(Cl)c2c(=O)n1-c1cn[nH]c1 [Compound 122, (S)-3-amino-N-(1-(5,8-dichloro-4-oxo-3-(1H-pyrazol-4-yl)-3,4-dihydroquinazolin-2-yl)propyl)pyrazine-2-carboxamide]
2 | – | – | – | – | 436 | 1 | 3 | N#Cc1c(N)nc(N)nc1N[C@H](c1nc2c(F)cc(F)cc2c(=O)n1-c1cc[nH]n1)C1CC1 [Compound 170, (S)-2,4-diamino-6-((cyclopropyl(6,8-difluoro-4-oxo-3-(1H-pyrazol-3-yl)-3,4-dihydroquinazolin-2-yl)methyl)amino)pyrimidine-5-carbonitrile]
3 | – | – | – | – | 9900 | 8 | 31 | C[C@H](Nc1nc(N)nc(C(F)F)c1C#N)c1nc2c(Cl)ccc(Cl)c2c(=O)n1-c1cc[nH]n1 [Compound 190, (S)-2-amino-4-((1-(5,8-dichloro-4-oxo-3-(1H-pyrazol-3-yl)-3,4-dihydroquinazolin-2-yl)ethyl)amino)-6-(difluoromethyl)pyrimidine-5-carbonitrile]
4 | – | – | – | – | 1000 | 3 | 3 | C[C@H](Nc1nc(N)nc(N)c1C(F)(F)F)c1nc2cccc(Cl)c2c(=O)n1-c1cc[nH]n1 [Compound 201, (S)-5-chloro-2-(1-((2,6-diamino-5-(trifluoromethyl)pyrimidin-4-yl)amino)ethyl)-3-(1H-pyrazol-3-yl)quinazolin-4(3H)-one]
5 | – | – | – | – | 2240 | 23 | 34 | C[C@H](Nc1nc(N)nc(C(F)F)c1C#N)c1nc2cccc(C(F)(F)F)c2c(=O)n1-c1cc[nH]n1 [Compound 178, (S)-2-amino-4-(difluoromethyl)-6-((1-(4-oxo-3-(1H-pyrazol-3-yl)-5-(trifluoromethyl)-3,4-dihydroquinazolin-2-yl)ethyl)amino)pyrimidine-5-carbonitrile]
6 | 8200 | 0.4 | 70 | – | – | – | – | CC[C@H](Nc1ncnc2scnc12)c1nc2cccc(S(C)(=O)=O)c2c(=O)n1-c1cc[nH]n1 [Compound 87, (S)-5-(methylsulfonyl)-3-(1H-pyrazol-3-yl)-2-(1-(thiazolo[5,4-d]pyrimidin-7-ylamino)propyl)quinazolin-4(3H)-one]
7 | 2500 | 29 | 82 | – | – | – | – | CC[C@H](Nc1nc(N)nc(N)c1C#N)c1nc2cccc(C#N)c2c(=O)n1-c1cn[nH]c1 [Compound 102, (S)-2-(1-((2,6-diamino-5-cyanopyrimidin-4-yl)amino)propyl)-4-oxo-3-(1H-pyrazol-4-yl)-3,4-dihydroquinazoline-5-carbonitrile]
8 | – | – | – | – | > 10000 | 21 | 33 | C[C@H](Nc1nc(N)nc(N)c1C#N)c1nc2cc(Cl)ccc2c(=O)n1-c1cc[nH]n1 [Compound 139]
9 | – | – | – | – | 260 | 0.6 | 1 | C[C@H](Nc1nc(N)nc(N)c1C#N)c1nc2c(F)cc(F)cc2c(=O)n1-c1cc[nH]n1 [Compound 169, (S)-2,4-diamino-6-((1-(6,8-difluoro-4-oxo-3-(1H-pyrazol-3-yl)-3,4-dihydroquinazolin-2-yl)ethyl)amino)pyrimidine-5-carbonitrile]
10 | – | 88 | 1300 | > 10000 | – | – | – | CC[C@H](Nc1ncnc2sccc12)c1nc2c(Cl)ccc(Cl)c2c(=O)n1-c1cn[nH]c1 [Compound 56, (S)-5,8-dichloro-3-(1H-pyrazol-4-yl)-2-(1-(thieno[2,3-d]pyrimidin-4-ylamino)propyl)quinazolin-4(3H)-one]
11 | – | – | – | – | 590 | 53 | 83 | C[C@H](NC(=O)c1nc(Cl)c(N)nc1N)c1nc2c(F)ccc(Cl)c2c(=O)n1-c1cn[nH]c1 [Compound 278, (S)-3,5-diamino-6-chloro-N-(1-(5-chloro-8-fluoro-4-oxo-3-(1H-pyrazol-4-yl)-3,4-dihydroquinazolin-2-yl)ethyl)pyrazine-2-carboxamide]
12 | 1700 | 6 | 32 | – | – | – | – | Nc1nc(N)c(Cl)c(N[C@H](c2nc3cccc(Cl)c3c(=O)n2-c2cn[nH]c2)C2CC2)n1 [Compound 19, (S)-5-chloro-2-(cyclopropyl((2,6-diamino-5-chloropyrimidin-4-yl)amino)methyl)-3-(1H-pyrazol-4-yl)quinazolin-4(3H)-one]
13 | – | – | – | – | > 10000 | 75 | 920 | CCC[C@H](Nc1nc(N)nc(N)c1Cl)c1nc2c(Cl)ccc(Cl)c2c(=O)n1-c1cn[nH]c1 [Compound 252, (S)-5,8-dichloro-2-(1-((2,6-diamino-5-chloropyrimidin-4-yl)amino)butyl)-3-(1H-pyrazol-4-yl)quinazolin-4(3H)-one]
14 | 5100 | 0.6 | 1 | – | – | – | – | O=c1c2c(Cl)ccc(Cl)c2nc([C@@H](Nc2ncnc3scnc23)C2CC2)n1-c1cc[nH]n1 [Compound 37, (S)-5,8-dichloro-2-(cyclopropyl(thiazolo[5,4-d]pyrimidin-7-ylamino)methyl)-3-(1H-pyrazol-3-yl)quinazolin-4(3H)-one]
15 | – | – | – | – | > 10000 | 47 | 35 | C[C@H](Nc1nc(N)nc(C(F)F)c1C#N)c1nc2c(C(F)F)cc(F)cc2c(=O)n1-c1cc[nH]n1 [Compound 142, (S)-2-amino-4-(difluoromethyl)-6-((1-(8-(difluoromethyl)-6-fluoro-4-oxo-3-(1H-pyrazol-3-yl)-3,4-dihydroquinazolin-2-yl)ethyl)amino)pyrimidine-5-carbonitrile]

Row | SMILES | IC50 (PI3Kγ; [1]) [nM] | IC50 (PI3Kδ; [1]) [nM] | IC50 (PI3Kβ; [1]) [nM] | IC50 (PI3Kγ) [nM] | IC50 (PI3Kγ; Table 2a, same assay) [nM] | IC50 (PI3Kδ; Table 2a, same assay) [nM] | IC50 (PI3Kβ; Table 2a, same assay) [nM]
16 | C[C@H](Nc1nc(N)nc(N)c1Cl)c1nc2c(F)ccc(Cl)c2c(=O)n1-c1cc[nH]n1 [Compound 67, (S)-5-chloro-2-(1-((2,6-diamino-5-chloropyrimidin-4-yl)amino)ethyl)-8-fluoro-3-(1H-pyrazol-3-yl)quinazolin-4(3H)-one] | 2800 | 3 | 3 | – | – | – | –
17 | C[C@H](Nc1ncnc2ccoc12)c1nc2cccc(Cl)c2c(=O)n1-c1cc[nH]n1 [Compound 61, (S)-5-chloro-2-(1-(furo[3,2-d]pyrimidin-4-ylamino)ethyl)-3-(1H-pyrazol-3-yl)quinazolin-4(3H)-one] | 8100 | 3 | 20 | – | – | – | –
18 | C[C@H](Nc1nc(N)nc(N)c1Cl)c1nc2c(F)ccc(F)c2c(=O)n1-c1cc[nH]n1 [Compound 152, (S)-2-(1-((2,6-diamino-5-chloropyrimidin-4-yl)amino)ethyl)-5,8-difluoro-3-(1H-pyrazol-3-yl)quinazolin-4(3H)-one] | – | – | – | – | > 10000 | 13 | 20
19 | C[C@H](Nc1ncnn2ccnc12)c1nc2cccc(Cl)c2c(=O)n1-c1ccc[nH]1 [Compound 291, (S)-5-chloro-2-(1-(imidazo[2,1-f][1,2,4]triazin-4-ylamino)ethyl)-3-(1H-pyrrol-2-yl)quinazolin-4(3H)-one] | – | – | – | – | 170 | 1 | 140
20 | C[C@H](Nc1ncnc2scnc12)c1nc2cccc(Cl)c2c(=O)n1-c1ccc[nH]1 [Compound 290, (S)-5-chloro-3-(1H-pyrrol-2-yl)-2-(1-(thiazolo[5,4-d]pyrimidin-7-ylamino)ethyl)quinazolin-4(3H)-one] | – | – | – | – | 72 | 0.5 | 69
